Laboratory results as given in ChEMBL document CHEMBL6087389, “Hydrazone-Functionalized trans-A2B-Corroles: Effective Synergy in Photodynamic Therapy of Lung Cancer” (J Med Chem, 2024).

Tests used:
[1] = Fluorescence property of the compound in THF assessed as fluorescence quantum yield by photoluminescence quantum yield spectrometer; assay type: physicochemical
[2] = Fluorescence property of the compound in DMSO assessed as fluorescence quantum yield by photoluminescence quantum yield spectrometer; assay type: physicochemical
[3] = Induction of singlet oxygen generation in THF assessed as singlet oxygen quantum yield by comparative photoluminescence method; assay type: functional
A549 [4] = experiment: Photocytotoxicity in human A549 cells assessed as cell viability at 10 uM measured after 24 hrs by MTT assay relative to control; assay type: functional; settings: read-out: Activity
[5] = Phototoxicity against human A549 cells assessed as reduction in cell viability preincubated for 24 hrs followed by 7.5 to 10 mW/cm^-2 red light irradiation and measured after 24 hrs by MTT assay; assay type: functional, cell-based; settings: A549, light or radiation study
[6] = Phototoxicity against human NCI-H1299 cells assessed as reduction in cell viability preincubated for 24 hrs followed by 7.5 to 10 mW/cm^-2 red light irradiation and measured after 24 hrs by MTT assay; assay type: functional, cell-based; settings: NCI-H1299, light or radiation study
A549 [7] = experiment: Dark toxicity against human A549 cells assessed as reduction in metabolic activity at <1 uM incubated for 4 hrs by MTT assay; assay type: cell-based; settings: a549, 4 h
NCI-H1299 [8] = experiment: Dark toxicity against human NCI-H1299 cells assessed as reduction in metabolic activity at <1 uM incubated for 4 hrs by MTT assay; assay type: cell-based; settings: nci-h1299, 4 h
A549 [9] = experiment: Dark toxicity against human A549 cells assessed as reduction in metabolic activity at 10 uM incubated for 4 hrs by MTT assay; assay type: cell-based; set-up: scale not given: the % may be the effect or the level left; settings: a549, 4 h
NCI-H1299 [10] = experiment: Dark toxicity against human NCI-H1299 cells assessed as reduction in metabolic activity at 10 uM incubated for 4 hrs by MTT assay; assay type: cell-based; settings: nci-h1299, 4 h
A549 [11] = experiment: Dark toxicity against human A549 cells assessed as reduction in metabolic activity at 5 uM incubated for 4 hrs by MTT assay relative to control; assay type: cell-based; set-up: scale not given: the % may be the effect or the level left; settings: a549, 4 h

| SMILES | Activity [1] | Activity [2] | Activity [3] | viability at 10 µM (A549 [4]) [%] | IC50 [5] [µM] | IC50 [6] [µM] | Activity (A549 [7]) | Activity (NCI-H1299 [8]) | Activity (A549 [9]) | Activity (NCI-H1299 [10]) | Activity (A549 [11]) [%] |
| --- | --- | --- | --- | --- | --- | --- | --- | --- | --- | --- | --- |
| Oc1cccc(-c2c3nc(c(-c4cccc(O)c4)c4ccc([nH]4)c(-c4cccc(O)c4)c4nc(c(-c5cccc(O)c5)c5ccc2[nH]5)CC4)C=C3)c1 [TEMOPORFIN] |  |  |  |  | 0.0841 |  |  |  |  |  |  |
| C/C(=N\NS(=O)(=O)c1ccc(C)cc1)c1c2nc(c(-c3ccc(O)cc3)c3ccc([nH]3)c3ccc([nH]3)c(-c3ccc(O)cc3)c3ccc1[nH]3)C=C2 | 0.073 | 0.212 | 0.19 |  | 0.892 | 0.277 | Non-toxic | Non-toxic | 13.93% |  | 17.95 |
| CC(C)(C)OC(=O)N/N=C(/c1ccccc1)c1c2nc(c(-c3ccc(O)cc3)c3ccc([nH]3)c3ccc([nH]3)c(-c3ccc(O)cc3)c3ccc1[nH]3)C=C2 | 0.118 | 0.234 | 0.21 |  | 0.0893 | 0.0561 | Non-toxic | Non-toxic |  |  |  |

Second part, led by results:

| Activity [1] | Activity [2] | SMILES | Activity [3] | viability at 10 µM (A549 [4]) [%] | IC50 [5] [µM] | IC50 [6] [µM] | Activity (A549 [7]) | Activity (NCI-H1299 [8]) | Activity (A549 [9]) | Activity (NCI-H1299 [10]) | Activity (A549 [11]) [%] |
| --- | --- | --- | --- | --- | --- | --- | --- | --- | --- | --- | --- |
| 0.12 | 0.22 | C1=Cc2nc1c(-c1ccccc1)c1ccc([nH]1)c(-c1ccccc1)c1ccc([nH]1)c1ccc([nH]1)c2-c1ccccc1 | 0.22 | 93 |  |  |  |  |  |  |  |
| 0.111 | 0.211 | C/C(=N\NC(=O)c1ccccc1)c1c2nc(c(-c3ccccc3)c3ccc([nH]3)c3ccc([nH]3)c(-c3ccccc3)c3ccc1[nH]3)C=C2 | 0.11 |  | 0.803 | 0.164 | Non-toxic | Non-toxic | Non-toxic | Non-toxic |  |
| 0.159 | 0.298 | CC(C)(C)OC(=O)N/N=C(\c1ccccc1)c1c2nc(c(-c3ccccc3)c3ccc([nH]3)c3ccc([nH]3)c(-c3ccccc3)c3ccc1[nH]3)C=C2 | 0.46 |  | 0.948 | 0.538 | Non-toxic | Non-toxic |  | Non-toxic |  |
